One compound from EPA's ToxValDB 9.5 (doi:10.2903/j.efsa.2011.1962) can be followed below.

Structures are written as SMILES. Some results are limits rather than exact numbers.

One data set concerns Canidae. To be noted: subchronic; duration: 90 days; oral; Dog Other; histopathology: nonneoplastic.
A further data set concerns Daphnia magna. To be noted: chronic/long-term; duration: 21 days; reproduction.
In the next data set the test system is Lepomis macrochirus. To be noted: chronic/long-term; duration: 28 days; body weight.
In the next data set the test system is Oryctolagus sp. To be noted: developmental; development.
The subject of the next data set is Tagia sp. To be noted: acute; duration: 14 days; mortality.
The subject of the next data set is Typhlodromus pyri. In words: LR50; higher = less toxic. To be noted: not reported; mortality.

For orientation: NOAEL means the highest tested level that showed no adverse finding. By LOAEL is commonly meant the lowest tested level that showed an adverse finding. Turning to `CC(C)C(O)(c1ccc(OC(F)(F)F)cc1)c1cncnc1` (stereo unspecified) [Flurprimidol], the no-observed-adverse-effect level (NOAEL) with Canidae worked out at 1.5 mg/kg-day; in the data set on Oryctolagus sp., 9 mg/kg-day; in the data set with Rattus norvegicus (developmental, development), 10 mg/kg-day; in the data set with Rattus norvegicus (reproduction developmental, reproduction), 1.8 mg/kg-day; in the data set on Rattus norvegicus (subchronic, duration: 90 days, oral, organ weight) it was 1.96 mg/kg-day. For the same compound, the NOEC in the data set on Daphnia magna was found to be 1.7 mg/L; with Lepomis macrochirus, 0.42 mg/L; in the data set on Tagia sp. it was 62.6 mg/kg. The compound also showed an LOAEL in the data set on Rattus norvegicus (chronic, duration: 2 years, organ weight) of 1 mg/kg-day. For the same compound, the NOEL in the data set with Rattus norvegicus (short-term, oral, diet, body weight) was 1.62 mg/kg-day. For the same compound, the LR50 in the data set with Typhlodromus pyri was more than 29.6 g/ha.
